Experimental data taken from patent publication US9023821B2, “Use of MicroRNA for treating diseases associated with a dysfunction of the cilia in multiciliated epithelial cells” (Centre National de la Recherche Scientifique, priority 2009, dated 2015).

Columns and labels:
[1] = system: human airway epithelial cells (HAECs); assay: High-throughput sequencing (HTS) of miRNAs at four stages of differentiation of HAECs; conditions: for Modulation (ratio of the level of intensity of expression in log2 in two stages of differentiation) measured by high-throughput sequencing, D7 − D0 / Modulation (ratio of the level of intensity of expression in log2 in two stages of differentiation) measured by high-throughput sequencing, FC − D7 / Modulation (ratio of the level of intensity of expression in log2 in two stages of differentiation) measured by high-throughput sequencing, WD − D0 / Modulation (ratio of the level of intensity of expression in log2 in two stages of differentiation) measured by high-throughput sequencing, WD − FC / Level of intensity of expression in log2 measured by high-throughput sequencing, D0 / Level of intensity of expression in log2 measured by high-throughput sequencing, D7 / Level of intensity of expression in log2 measured by high-throughput sequencing, FC / Level of intensity of expression in log2 measured by high-throughput sequencing, WD: Table VI; for Level of intensity of expression in log2 At the differentiated stage (WD) measured in HTS: healthy human airway epithelial tissue; for Level of intensity of expression in log2 measured by high-throughput sequencing, D0: stage D0; for Level of intensity of expression in log2 measured by high-throughput sequencing, D7: stage D7; for Level of intensity of expression in log2 measured by high-throughput sequencing, FC: stage FC; for Level of intensity of expression in log2 At the differentiated stage (WD) measured in HTS / Level of intensity of expression in log2 measured by high-throughput sequencing, WD: stage WD
Outline: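 Total RNA (with small RNAs) from air-liquid-interface HAECs at ALI-D0, D7, first cilia (~14 d) and fully differentiated (~21 d); adaptor-ligated SOLiD small-RNA libraries, RT-PCR, gel-selected ~105-150 bases. Counts normalized to 10^6 sequences as % abundance; linear-model/empirical Bayes; kept >1% abundance, |Log2 Ratio| <0.5, adjusted P <0.05.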

[2] = system: human airway epithelial cells (HAECs); assay: Agilent miRNA chips, miRNA expression at four stages of differentiation of HAECs; conditions: for Modulation (ratio of the level of intensity of expression in log2 in two stages of differentiation) measured with the Agilent chips, D7 − D0 / Modulation (ratio of the level of intensity of expression in log2 in two stages of differentiation) measured with the Agilent chips, FC − D7 / Modulation (ratio of the level of intensity of expression in log2 in two stages of differentiation) measured with the Agilent chips, WD − D0 / Modulation (ratio of the level of intensity of expression in log2 in two stages of differentiation) measured with the Agilent chips, WD − FC / Level of intensity of expression in log2 measured with the Agilent chips, D0 / Level of intensity of expression in log2 measured with the Agilent chips, D7 / Level of intensity of expression in log2 measured with the Agilent chips, FC / Level of intensity of expression in log2 measured with the Agilent chips, WD: Table VI; for Level of intensity of expression in log2 measured with the Agilent chips, D0: stage D0; for Level of intensity of expression in log2 measured with the Agilent chips, D7: stage D7; for Level of intensity of expression in log2 measured with the Agilent chips, FC: stage FC; for Level of intensity of expression in log2 measured with the Agilent chips, WD: stage WD
Outline: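 RNA from the same patients' HAECs at four differentiation stages was labelled and hybridized with the Agilent miRNA labeling and hybridization kit. Chips were Human miRNA Microarray v2, with 866 human and 89 viral miRNAs (miRBase v12.0). Profiles were compared with high-throughput sequencing data.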

[3] = system: basal cells and pyramidal cells of the airway epithelium; assay: miRNA expression in sorted basal cells versus pyramidal cells (ciliated + secretory), HTS and Agilent chips; set-up: species or system human; conditions: for Modulation of expression of the miRNAs in pyramidal cells (323(−)) relative to basal cells 323(+): HTS and Agilent chips; for Intensity of the level of expression in log2 in pyramidal cells (323(−)): pyramidal cells (ciliated + secretory)
Outline: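 Nasal polyp or concha epithelial cells from 3 donors FACS-sorted into CD151+/tissue factor+ basal cells and CD151−/TF− pyramidal (ciliated plus mucus-secreting) cells, excluding dead (DAPI) cells and doublets. miRNA profiles from total RNA obtained by Agilent chips or high-throughput sequencing.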

Substance	Modulation (ratio of the level of intensity of expression in log2 in two stages of differentiation) measured by high-throughput sequencing, D7 − D0 [1]	Modulation (ratio of the level of intensity of expression in log2 in two stages of differentiation) measured by high-throughput sequencing, FC − D7 [1]	Modulation (ratio of the level of intensity of expression in log2 in two stages of differentiation) measured by high-throughput sequencing, WD − D0 [1]	Modulation (ratio of the level of intensity of expression in log2 in two stages of differentiation) measured by high-throughput sequencing, WD − FC [1]	Level of intensity of expression in log2 At the differentiated stage (WD) measured in HTS [1]	Level of intensity of expression in log2 measured by high-throughput sequencing, D0 [1]	Level of intensity of expression in log2 measured by high-throughput sequencing, D7 [1]	Level of intensity of expression in log2 measured by high-throughput sequencing, FC [1]	Level of intensity of expression in log2 measured by high-throughput sequencing, WD [1]	Modulation (ratio of the level of intensity of expression in log2 in two stages of differentiation) measured with the Agilent chips, D7 − D0 [2]	Modulation (ratio of the level of intensity of expression in log2 in two stages of differentiation) measured with the Agilent chips, FC − D7 ([2]; FC − D7)	Modulation (ratio of the level of intensity of expression in log2 in two stages of differentiation) measured with the Agilent chips, WD − D0 [2]	Modulation (ratio of the level of intensity of expression in log2 in two stages of differentiation) measured with the Agilent chips, WD − FC ([2]; WD − FC)	Level of intensity of expression in log2 measured with the Agilent chips, D0 [2]	Level of intensity of expression in log2 measured with the Agilent chips, D7 [2]	Level of intensity of expression in log2 measured with the Agilent chips, FC [2]	Level of intensity of expression in log2 measured with the Agilent chips, WD [2]	Modulation of expression of the miRNAs in pyramidal cells (323(−)) relative to basal cells 323(+) [3]	Intensity of the level of expression in log2 in basal cells (323(+)) [3]	Intensity of the level of expression in log2 in pyramidal cells (323(−)) [3]	also measured
hsa-miR-140-3p: human miRNA, SEQ ID No. 5 (UACCACAGGGUAGAACCACGG; expressed or natural sequence; listed as Homo sapiens)	0.33 log2	0.37 log2	0.73 log2	0.04 log2	13.12 log2	12.39 log2	12.72 log2	13.08 log2	13.12 log2	1.54 log2	−0.08 log2	1.52 log2	0.06 log2	3.55 log2	5.09 log2	5.01 log2	5.07 log2	0.91	2.75 log2	3.66 log2	Modulation (ratio of the level of intensity of expression in log2 in two stages of differentiation), D7 − D0 ([1]; HTS): 0.33 log2; Modulation (ratio of the level of intensity of expression in log2 in two stages of differentiation), FC − D7 ([1]; HTS): 0.37 log2; Modulation (ratio of the level of intensity of expression in log2 in two stages of differentiation), WD − FC ([1]; HTS): 0.04 log2; Abundance (%), D0 ([1]; HTS, ALI-D0): 1.17%; Abundance (%), D7 ([1]; HTS, ALI-D7): 1.48%; Abundance (%), FC ([1]; HTS, ALI-FC): 1.85%; Abundance (%), WD ([1]; HTS, ALI-WD): 1.44%
hsa-miR-141: human miRNA, SEQ ID No. 6 (UAACACUGUCUGGUAAAGAUGG; expressed or natural sequence; listed as Homo sapiens)	1.17 log2	0.37 log2	1.70 log2	0.17 log2	9.75 log2	8.05 log2	9.22 log2	9.58 log2	9.75 log2	2.16 log2	−0.28 log2	1.88 log2	0.00 log2	11.15 log2	13.31 log2	13.03 log2	13.03 log2	−2.88	11.12 log2	8.24 log2	Modulation (ratio of the level of intensity of expression in log2 at two stages of differentiation), FC − D7 ([2]; FC − D7, Agilent miRNA chips, Table V): −0.28 log2; Modulation (ratio of the level of intensity of expression in log2 at two stages of differentiation), WD − FC ([2]; WD − FC, Agilent miRNA chips, Table V): 0.00 log2
